Experimental data reported in US10883996B2, “Methods of identifying signaling modulators of the trimeric TNFa” (UCB BIOPHARMA SRL, priority 2015, dated 2021).
Entries after “also recorded” stand apart in the source; their conditions may differ.

Biological target: T1, TNFα trimer / TNFR1 (Homo sapiens, UniProt P01375)
T1 construct: human TNFα residues V77-L233 followed by two additional repeats; human TNFα residues D86-L233 linked together by Ser-Gly-Ser
Experiment: Analytical size exclusion chromatography of TNFα/TNFR1/compound complexes, protocol 2
Assay type: binding
Settings: compound 200 μM (1:10 trimers:compound); 3.5 fold excess of receptors
Procedure: Size exclusion chromatography was used to determine the number of TNFR1 receptors bound to TNFα in the absence or presence of different compounds. Compound (2) was tested under the conditions described in protocol 1 below. Compound (5) was tested as described in protocol 2.
Compound (5) was added to 20 μM of TNFα trimer at a final concentration of 200 μM (ratio of 1:10 trimers:compound) with DMSO concentration held constant at 2.0%. The sample of TNFα and compound were incubated overnight at a temperature of 4° C. Receptors at a final concentration of 35 μM were added to 10 μM trimer-compound complex (3.5 fold excess of receptors over the trimer-compound complex). The final concentration of DMSO was 1.0%. The mixture was incubated for 1 hour at 22° C.
The conditions for analytical size exclusion using HPLC were as follows: injection volume: 50 μl; Superdex 200HR 10/300, L×I.D. 30 cm×10 mm column, 13-15 μm particle size; and a buffer of 10 mM HEPES, pH 7.5, 150 mM NaCl.
The TNFα was a single polypeptide chain of trimeric human TNFα composed of human TNFα residues V77-L233 followed by two additional repeats of human TNFα residues D86-L233 linked together by Ser-Gly-Ser (sequences are based on UniProt […]). Human TNFR1 was (V43-N184)(N54D, C182S) based on sequence UniProt P19438. […]

T1 sequence (P01375 with tags, fused parts or gaps): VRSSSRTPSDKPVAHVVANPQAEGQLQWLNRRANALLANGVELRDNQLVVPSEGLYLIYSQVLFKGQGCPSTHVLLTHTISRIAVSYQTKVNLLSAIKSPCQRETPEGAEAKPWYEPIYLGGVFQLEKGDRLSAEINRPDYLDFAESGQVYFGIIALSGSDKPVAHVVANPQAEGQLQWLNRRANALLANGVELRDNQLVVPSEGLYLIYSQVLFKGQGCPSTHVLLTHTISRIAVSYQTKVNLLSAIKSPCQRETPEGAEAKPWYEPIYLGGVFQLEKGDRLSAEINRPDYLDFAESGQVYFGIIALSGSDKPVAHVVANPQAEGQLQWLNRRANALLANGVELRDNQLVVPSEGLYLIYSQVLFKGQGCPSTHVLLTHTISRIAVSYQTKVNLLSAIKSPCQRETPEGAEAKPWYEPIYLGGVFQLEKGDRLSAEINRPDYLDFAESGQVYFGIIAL

## Cc1nc2cc(F)c(-c3cnc(N4CC(O)(C(F)(F)F)C4)nc3)cn2c1[C@@H](O)c1ccccc1OC(F)F (single isomer, unassigned) [compound (5)]
  number of receptors binding per trimer (SEC peak position vs mutant TNFα controls): a mixture of two receptors and one receptor; also recorded: moved closer to 1 receptor bound
